Source: patent US12370232B2, “Use of polyphenol containing sugar cane extracts for preventing, improving or treating a skin condition” (priority 2017, dated 2025)
“And” between values parts separate entries of the source, which are not always exact repeats. Equal values may be shown once. Read-outs that look alike come from different tables or passages of the source. Where a SMILES comes first, the peptide text is derived from it. The star is where a group is joined. MeOSuc = COC(=O)CCC(=O)*; CH2Cl = ClC*

What was measured:
[1] = test system: melanin production in human skin cells; assay: Cellular melanin pigmentation inhibition assay; format: cell-based; settings: for EC50 / inhibition at 10 µM / inhibition at 0.31 µM / inhibition at 0.63 µM / inhibition at 1.25 µM / inhibition at 2.5 µM / inhibition at 5 µM: Homo sapiens
Description: A melanin production inhibition assay was performed to determine the potential of an extract derived from sugar cane of the present disclosure to inhibit melanin production.
To measure melanin pigmentation inhibition potential of an extract derived from sugar cane of the present disclosure, a test sample of an extract derived from sugar cane, in combination with theophylline, was added to a pre-incubated human skin cell culture. After incubating for 72 hours, the cells were washed with phosphate-buffered saline (PBS), lysed in 1 M NaOH, and boiled for 5 minutes to solubilize the melanin. The inhibition rates of the lysates were measured at 490 nm and expressed as a percentage relative to the value of the untreated control.
Chloroquine, a known melanin production inhibitor, was used as an assay control. Two batches (replicate 1 and replicate 2) of chloroquine in a concentration from 0.31 μM to 10 μM were used in the control assay.

[2] = target: T1, elastase (Homo sapiens, UniProt P08246); assay: Elastase inhibition assay; format: biochemical
T1 sequence (P08246 30-247): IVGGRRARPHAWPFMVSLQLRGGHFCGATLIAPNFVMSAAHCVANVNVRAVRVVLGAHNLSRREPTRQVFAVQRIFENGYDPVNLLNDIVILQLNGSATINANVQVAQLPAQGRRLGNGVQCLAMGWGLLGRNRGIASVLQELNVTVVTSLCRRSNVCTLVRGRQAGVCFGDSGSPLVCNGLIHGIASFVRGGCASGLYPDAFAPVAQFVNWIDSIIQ
Description: An elastase inhibition assay was performed to determine the elastase inhibition potential of an extract derived from sugar cane of the present disclosure. […] To measure elastase inhibitory potential of an extract derived from sugar cane of the present disclosure, a test sample of an extract derived from sugar cane was mixed and incubated with N-methoxysuccinyl-[…]-chloromethyl ketone in tris-HCl buffer for 15 min. Then elastase was added to the mixture and incubated for 15 min. […] [formula] Wherein, • Abssample+elastase=absorbance of test sample after incubation with elastase, • Abssample-elastase=absorbance of test sample before incubation with elastase, • Absblank+elastase=absorbance of blank after incubation with elastase, and • Absblank-elastase=absorbance of blank before incubation with elastase. N-methoxysuccinyl-[…]-chloromethyl ketone, a human leukocyte elastase (HLE) inhibitor, was used as an assay control.

[3] = test system: collagenase; assay: Collagenase inhibition assay; format: biochemical
Description: A collagenase inhibition assay was performed to determine the collagenase inhibition of an extract derived from sugar cane of the present disclosure. Two batches (replicate 1 and replicate 2) of an extract derived from sugar cane of the present disclosure in a concentration of from 0.17 mg/mL to 350 mg/mL were tested for the ability to inhibit collagenase.
To measure collagenase inhibition potential of an extract derived from sugar cane of the present disclosure, a test sample of an extract derived from sugar cane was mixed sequentially with type-I collagen substrate and a diluted collagenase enzyme solution. After incubation for 30 minutes at 37° C., fluorescence was measured at excitation maxima of 495 nm and emission maxima of 515 nm. The inhibition percentage was calculated as follows.
[formula] Wherein, • Abssample=absorbance of the sample test, • Absblank=absorbance of the sample blank, • Abspositive control=absorbance of the positive control, and • Absnegative control=absorbance of the negative control.
1,10-phenanthroline was used as a positive assay control. Two batches (replicate 1 and replicate 2) of 1,10-phenanthroline in a concentration of from 1.7 μM to 3500 μM were used in the positive control assay. A negative control was performed with a buffer and a collagen substrate but without collagenase enzyme.

[4] = target: T2, telomerase (Homo sapiens, UniProt O14746); assay: Cellular telomerase activity assay (TRAP); format: cell-based; set-up: Telomerase activity Replicate 1 / Telomerase activity Replicate 2 / Telomerase activity Average: unit not given here
T2 construct: endogenous in cells
T2 sequence (O14746 whole entry): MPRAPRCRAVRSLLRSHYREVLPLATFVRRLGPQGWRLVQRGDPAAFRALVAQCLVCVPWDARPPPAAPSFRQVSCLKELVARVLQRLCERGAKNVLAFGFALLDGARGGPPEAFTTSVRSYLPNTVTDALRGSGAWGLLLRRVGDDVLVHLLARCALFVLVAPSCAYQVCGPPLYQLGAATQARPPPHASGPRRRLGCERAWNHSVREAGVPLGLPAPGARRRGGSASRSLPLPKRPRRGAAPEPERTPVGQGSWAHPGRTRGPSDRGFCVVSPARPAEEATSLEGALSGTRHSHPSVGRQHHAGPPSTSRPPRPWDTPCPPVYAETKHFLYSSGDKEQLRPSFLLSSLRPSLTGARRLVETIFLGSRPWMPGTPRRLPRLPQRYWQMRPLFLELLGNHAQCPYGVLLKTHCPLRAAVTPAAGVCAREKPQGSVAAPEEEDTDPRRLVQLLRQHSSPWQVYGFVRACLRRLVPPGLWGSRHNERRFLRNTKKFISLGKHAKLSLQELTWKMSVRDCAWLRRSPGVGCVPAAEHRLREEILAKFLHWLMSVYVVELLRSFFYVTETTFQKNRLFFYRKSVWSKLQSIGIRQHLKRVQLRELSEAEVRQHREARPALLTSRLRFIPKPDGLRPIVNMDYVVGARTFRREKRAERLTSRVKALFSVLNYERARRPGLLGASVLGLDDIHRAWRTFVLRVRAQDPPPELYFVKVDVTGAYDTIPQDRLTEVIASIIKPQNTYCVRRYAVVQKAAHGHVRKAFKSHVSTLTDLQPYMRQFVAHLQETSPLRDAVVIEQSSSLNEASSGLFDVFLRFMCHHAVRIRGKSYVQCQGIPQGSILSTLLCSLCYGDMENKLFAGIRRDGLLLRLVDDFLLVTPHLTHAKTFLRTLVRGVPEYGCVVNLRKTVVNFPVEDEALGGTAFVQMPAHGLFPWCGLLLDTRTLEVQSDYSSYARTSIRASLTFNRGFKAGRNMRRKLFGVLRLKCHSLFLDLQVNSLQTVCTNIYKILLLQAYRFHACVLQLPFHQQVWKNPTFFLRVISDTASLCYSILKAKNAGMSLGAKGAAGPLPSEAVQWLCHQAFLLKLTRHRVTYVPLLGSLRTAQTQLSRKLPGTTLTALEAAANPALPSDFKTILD
Excerpt: A cellular telomerase activity assay determines the ability of a test material to stimulate telomerase activity in human cells, which translates to the material's anti-aging potential. […]
In the cellular telomerase activity assay, telomerase activity level of human cells treated with (and without) a test sample of an extract derived from sugar cane of the present disclosure was monitored. Specifically, a telomeric repeat amplification protocol (TRAP assay) was used for the assay. The TRAP assay was divided into three main steps: extension, amplification, and detection of telomerase products. In the extension phase, telomeric sequences were added to the telomerase substrate, a non-telomeric oligonucleotide, through the action of telomerase present in the cell extract. The products of the extension step were amplified by PCR using specific primers and finally were analyzed via electrophoresis.
Cycloastragenol, a known telomerase activator, was used as an assay control. Two batches (replicate 1 and replicate 2) of cycloastragenol in a concentration from 0.06 μM to 3 μM were used in the control assay.

[5] = read-out: Melanin inhibition (%) Average
[6] = read-out: Melanin inhibition (%) Replicate 1
[7] = read-out: Melanin inhibition (%) Replicate 2
[8] = read-out: Inhibition (%) Average
[9] = read-out: Inhibition (%) Relicate 1
[10] = read-out: Inhibition (%) Replicate 2

CCN(CC)CCCC(C)Nc1ccnc2cc(Cl)ccc12 (stereo not drawn) [chloroquine, Chloroquine]
Concentration inducing the maximum inhibition [1]: 10 µM
EC50 [1]: 0.74 µg/mL and 1.43 µM
EC50 ([1]; 72 h, read-out: EC50 (melanin production inhibition)): 1430 nM
inhibition at 10 µM ([1]; read-out: Maximum inhibition achieved): 88.1%
inhibition at 0.31 µM [1, 5]: 0.92%
inhibition at 0.63 µM [1, 5]: 16.1%
inhibition at 1.25 µM [1, 5]: 34.3%
inhibition at 2.5 µM [1, 5]: 76.1%
inhibition at 5 µM [1, 5]: 83.1%
inhibition at 10 µM [1, 5]: 88.1%
inhibition at 0.31 µM [1, 6]: 1.77%
inhibition at 0.63 µM [1, 6]: 15.5%
inhibition at 1.25 µM [1, 6]: 36.5%
inhibition at 2.5 µM [1, 6]: 76.6%
inhibition at 5 µM [1, 6]: 79.8%
inhibition at 10 µM [1, 6]: 85.7%
inhibition at 0.31 µM [1, 7]: 0.06%
inhibition at 0.63 µM [1, 7]: 16.7%
inhibition at 1.25 µM [1, 7]: 32.1%
inhibition at 2.5 µM [1, 7]: 75.6%
inhibition at 5 µM [1, 7]: 86.4%
inhibition at 10 µM [1, 7]: 90.5%

COC(=O)CCC(=O)NC(C)C(=O)NC(C)C(=O)N1CCCC1C(=O)NC(C(=O)CCl)C(C)C (stereo not drawn) [N-methoxysuccinyl-Ala-Ala-Pro-Val-chloromethyl ketone] (MeOSuc-AAPV-CH2Cl; configuration not given here)
Concentration inducing the maximum inhibition (elastase) [2]: 250 µM
inhibition at 250 µM ([2]; Conc. 250.00 uM, read-out: Inhibition (%) Average): 87.7%
inhibition at 250 µM ([2]; Conc. 250.00 uM, read-out: Inhibition (%) Relicate 1): 87.6%
inhibition at 250 µM ([2]; Conc. 250.00 uM, read-out: Inhibition (%) Replicate 2): 87.8%
inhibition at 0.12 µM [2, 8]: 10.3%
inhibition at 0.24 µM [2, 8]: 18.2%
inhibition at 0.49 µM [2, 8]: 30.3%
inhibition at 0.98 µM [2, 8]: 45.7%
inhibition at 1.95 µM [2, 8]: 59.2%
inhibition at 3.91 µM [2, 8]: 68.7%
inhibition at 7.81 µM [2, 8]: 76.3%
inhibition at 15.63 µM [2, 8]: 81%
inhibition at 31.25 µM [2, 8]: 84.4%
inhibition at 62.5 µM [2, 8]: 86.1%
inhibition at 125 µM [2, 8]: 87.2%
inhibition at 0.12 µM [2, 9]: 10.1%
inhibition at 0.24 µM [2, 9]: 18.3%
inhibition at 0.49 µM [2, 9]: 29.9%
inhibition at 0.98 µM [2, 9]: 45.3%
inhibition at 1.95 µM [2, 9]: 58.8%
inhibition at 3.91 µM [2, 9]: 68.5%
inhibition at 7.81 µM [2, 9]: 76.2%
inhibition at 15.63 µM [2, 9]: 81.1%
inhibition at 31.25 µM [2, 9]: 84.3%
inhibition at 62.5 µM [2, 9]: 86%
inhibition at 125 µM [2, 9]: 87.1%
inhibition at 0.12 µM [2, 10]: 10.5%
inhibition at 0.24 µM [2, 10]: 18.2%
inhibition at 0.49 µM [2, 10]: 30.6%
inhibition at 0.98 µM [2, 10]: 46.1%
inhibition at 1.95 µM [2, 10]: 59.6%
inhibition at 3.91 µM [2, 10]: 69%
inhibition at 7.81 µM [2, 10]: 76.3%
inhibition at 15.63 µM [2, 10]: 80.8%
inhibition at 31.25 µM [2, 10]: 84.5%
inhibition at 62.5 µM [2, 10]: 86.2%
inhibition at 125 µM [2, 10]: 87.3%
inhibition at 250 µM ([2]; read-out: Maximum inhibition achieved (elastase)): 87.7%

c1cnc2c(c1)ccc1cccnc12 [1,10-phenanthroline]
Concentration inducing the maximum inhibition (collagenase) [3]: 3.50 mM
Inhibition (%) Average ([3]; 1.71 uM): −29.05%
Inhibition (%) Relicate 1 ([3]; 1.71 uM): −29.63%
Inhibition (%) Replicate 2 ([3]; 1.71 uM): −28.47%
Inhibition (%) Average ([3]; 3.42 uM): −25.76%
Inhibition (%) Relicate 1 ([3]; 3.42 uM): −27.08%
Inhibition (%) Replicate 2 ([3]; 3.42 uM): −24.45%
Inhibition (%) Average ([3]; 6.84 uM): −21.65%
Inhibition (%) Relicate 1 ([3]; 6.84 uM): −22.85%
Inhibition (%) Replicate 2 ([3]; 6.84 uM): −20.46%
Inhibition (%) Average ([3]; 13.67 uM): −6.70%
Inhibition (%) Relicate 1 ([3]; 13.67 uM): −7.40%
Inhibition (%) Replicate 2 ([3]; 13.67 uM): −6.00%
Inhibition (%) Average ([3]; 27.34 uM): 24.95%
Inhibition (%) Relicate 1 ([3]; 27.34 uM): 25.64%
Inhibition (%) Replicate 2 ([3]; 27.34 uM): 24.25%
Inhibition (%) Average ([3]; 54.69 uM): 58.50%
Inhibition (%) Relicate 1 ([3]; 54.69 uM): 57.26%
Inhibition (%) Replicate 2 ([3]; 54.69 uM): 59.74%
Inhibition (%) Average ([3]; 109.38 uM): 71.66%
Inhibition (%) Relicate 1 ([3]; 109.38 uM): 71.77%
Inhibition (%) Replicate 2 ([3]; 109.38 uM): 71.54%
Inhibition (%) Average ([3]; 218.75 uM): 75.46%
Inhibition (%) Relicate 1 ([3]; 218.75 uM): 75.14%
Inhibition (%) Replicate 2 ([3]; 218.75 uM): 75.78%
Inhibition (%) Average ([3]; 437.50 uM): 77.01%
Inhibition (%) Relicate 1 ([3]; 437.50 uM): 76.63%
Inhibition (%) Replicate 2 ([3]; 437.50 uM): 77.39%
Inhibition (%) Average ([3]; 875.00 uM): 77.37%
Inhibition (%) Relicate 1 ([3]; 875.00 uM): 77.01%
Inhibition (%) Replicate 2 ([3]; 875.00 uM): 77.72%
Inhibition (%) Average ([3]; 1750.00 uM): 77.27%
Inhibition (%) Relicate 1 ([3]; 1750.00 uM): 76.83%
Inhibition (%) Replicate 2 ([3]; 1750.00 uM): 77.71%
Inhibition (%) Average ([3]; 3500.00 uM): 78.99%
Inhibition (%) Relicate 1 ([3]; 3500.00 uM): 79.75%
Inhibition (%) Replicate 2 ([3]; 3500.00 uM): 78.24%
Maximum inhibition achieved (collagenase) ([3]; at 3.50 mM): 78.99%
EC50 ([3]; effective concentration at 50% of maximal inhibition): 26800 nM
EC50 (collagenase inhibition) ([3]; same value in mass units): (4.84 μg/mL)

CC(C)(O)[C@@H]1CC[C@](C)([C@H]2[C@@H](O)C[C@@]3(C)[C@@H]4C[C@H](O)[C@H]5C(C)(C)[C@@H](O)CC[C@@]56C[C@@]46CC[C@]23C)O1 [Cycloastragenol]
Telomerase activity Average ([4]; 0.06 μM): 1387.33
Telomerase activity Replicate 1 ([4]; 0.06 μM): 925.83
Telomerase activity Replicate 2 ([4]; 0.06 μM): 1848.83
Telomerase activity Average ([4]; 0.13 μM): 1916.83
Telomerase activity Replicate 1 ([4]; 0.13 μM): 2080.83
Telomerase activity Replicate 2 ([4]; 0.13 μM): 1752.83
Telomerase activity Average ([4]; 0.25 μM): 5523.83
Telomerase activity Replicate 1 ([4]; 0.25 μM): 5415.83
Telomerase activity Replicate 2 ([4]; 0.25 μM): 5631.83
Telomerase activity Average ([4]; 0.50 μM): 7501.33
Telomerase activity Replicate 1 ([4]; 0.50 μM): 7834.83
Telomerase activity Replicate 2 ([4]; 0.50 μM): 7167.83
Telomerase activity Average ([4]; 1.00 μM): 15556.33
Telomerase activity Replicate 1 ([4]; 1.00 μM): 15590.83
Telomerase activity Replicate 2 ([4]; 1.00 μM): 15521.83
Telomerase activity Average ([4]; 3.00 μM): 21909.33
Telomerase activity Replicate 1 ([4]; 3.00 μM): 20995.83
Telomerase activity Replicate 2 ([4]; 3.00 μM): 22822.83
EC50 ([4]; half-maximal telomerase activation, human cells): 790 nM
EC50 (telomerase activation) ([4]; same value in mass units): (0.39 μg/mL
